Data from PubChem BioAssay (NCI).
Where “and” joins values, the source holds several entries; their conditions need not be identical. Equal values may be shown once.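 These data come from cells grown in 96-well plates and exposed to compound for 48 hours at five concentrations. Abbreviation: GI50, concentration required for 50% inhibition of growth. TGI marks complete inhibition of growth.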

Assays:
Experiment in all cases: NCI anticancer screen, dose series, 48 h
A549 NSCLC = system: A549 NSCLC
NCI-H23 lung = system: NCI-H23 lung
NCI-H460 lung = system: NCI-H460 lung
NCI/ADR-RES ovarian = system: NCI/ADR-RES ovarian
SK-MEL-28 melanoma = system: SK-MEL-28 melanoma
SNB-19 CNS = system: SNB-19 CNS
SNB-75 CNS = system: SNB-75 CNS
SW-620 colon = system: SW-620 colon
TK-10 renal = system: TK-10 renal
UO-31 renal = system: UO-31 renal

| SMILES | GI50 (A549 NSCLC) | TGI (A549 NSCLC) | GI50 (NCI-H23 lung) | TGI (NCI-H23 lung) | GI50 (NCI-H460 lung) | TGI (NCI-H460 lung) | GI50 (NCI/ADR-RES ovarian) | TGI (NCI/ADR-RES ovarian) | GI50 (SK-MEL-28 melanoma) | TGI (SK-MEL-28 melanoma) | GI50 (SNB-19 CNS) | TGI (SNB-19 CNS) | GI50 (SNB-75 CNS) | TGI (SNB-75 CNS) | GI50 (SW-620 colon) | TGI (SW-620 colon) | GI50 (TK-10 renal) | TGI (TK-10 renal) | GI50 (UO-31 renal) | TGI (UO-31 renal) |
| --- | --- | --- | --- | --- | --- | --- | --- | --- | --- | --- | --- | --- | --- | --- | --- | --- | --- | --- | --- | --- |
| Cc1cc(Cl)nc(N(CCCNc2ccnc3cc(Cl)ccc23)Cc2cccs2)n1 | 2.96 µM | 12.5 µM | 1.28 µM | 5.8 µM | 1.56 µM | 11 µM | 1.06 µM | 6.53 µM | 1.79 µM | 5.78 µM | 2.35 µM | 13.5 µM | 2.08 µM | 13.6 µM | 1.1 µM | 8.75 µM | 2.07 µM | 12.1 µM | 0.456 µM | 3.71 µM |
| O=C1C(Cl)=C(Nc2cc(Cl)ccc2O)C(=O)N1Cc1ccccc1 | 17 µM | 36.7 µM | 16.6 µM | 31.5 µM | 17.7 µM | 34.3 µM | 18.9 µM | 37.4 µM | 16.1 µM | 34.2 µM | 25.4 µM | > 61.2 µM | 27.5 µM | 64.6 µM | 19 µM | 38.5 µM | 21.4 µM | 42.9 µM | 32.7 µM | > 54.6 µM |
| c1cc(C2CCCCC2)ccc1-c1cnc2nonc2n1 | 2.74 µM | 12.2 µM | 1.37 µM | 4.02 µM | 1.38 µM | 3.64 µM | 0.466 µM | 2.72 µM | 1.36 µM | 2.99 µM | 1.46 µM | 3.55 µM | 0.528 µM | 1.71 µM | 0.502 µM | 2.45 µM | 1.28 µM | 2.79 µM | 1.18 µM | 2.44 µM |
| Cc1c(NC(=O)Nc2c(Cl)cccc2Cl)c(=O)n(-c2ccccc2)n1C | – | > 100 µM | – | > 100 µM | – | > 100 µM | – | > 100 µM | – | > 100 µM | – | > 100 µM | – | > 100 µM | – | > 100 µM | – | > 100 µM | – | > 100 µM |
| Cc1ccc(N=Nc2c(O)ccc3n[nH]nc23)cc1 | 14.2 µM | > 100 µM | 5.65 µM | 38.3 µM | 13.9 µM | 52.9 µM | 10.2 µM | 73.2 µM | 20.6 µM | > 100 µM | 20.7 µM | > 100 µM | 17.4 µM | > 100 µM | 12.3 µM | > 100 µM | 11.7 µM | 73.5 µM | 11.7 µM | 44.9 µM |
| O=C1c2ccn(CCCNC(CO)(CO)CO)c2C(=O)c2c1c(O)c1ccccc1c2O | 16.9 µM | 36.8 µM | 15.2 µM | 30.5 µM | 10.2 µM | 29.3 µM | 10.7 µM | 26.7 µM | 51.3 µM | > 100 µM | 36.3 µM | > 100 µM | > 75.2 µM | > 100 µM | 4.09 µM | 18.6 µM | 1.32 µM | 22.6 µM | 13.4 µM | 30.3 µM |
| C=C(C)C1CCC2=CC(CC3(C)OC3C3=CC(C(=O)OC)=C(C1)O3)OC2=O (stereo not given) | – | > 100 µM | – | > 100 µM | – | > 100 µM | – | > 100 µM | – | > 100 µM | – | > 100 µM | – | > 100 µM | – | > 100 µM | – | > 100 µM | – | > 100 µM |
| C=C1C(=O)O[C@@H]2CC(CO)=C([C@@H](C)CCCO)[C@@H](OC(=O)/C(C)=C\C)[C@H]12 | – | > 71.9 µM | – | 38.8 µM | – | 48.2 µM | – | 75.4 µM | – | 29.3 µM | – | > 54.6 µM | – | > 100 µM | – | 44.5 µM | – | 45.9 µM | – | > 65 µM |
| Oc1ccc(Cl)cc1Sc1cc(Cl)ccc1O | 3.91 µM | 58.6 µM and 13.7 µM | 2.23 µM | 24.2 µM and 7.33 µM | 3.45 µM | 24.8 µM and 9.2 µM | 2.48 µM | 57.8 µM and 7.47 µM | 4.67 µM | 26.3 µM and 15.3 µM | 4.19 µM | 57.1 µM and 16 µM | 2.94 µM | 36.4 µM and 10.6 µM | 4.02 µM | 39.6 µM and 13.8 µM | 8.02 µM | 31.3 µM and 31.1 µM | 2.24 µM | 20.1 µM and 6.24 µM |
| C[C@H]1COCCN1c1nc(-c2cnc(N)cc2C(F)F)nc(N2CCOCC2)n1 | 0.199 µM | > 100 µM | 0.274 µM | > 100 µM | 0.113 µM | > 100 µM | 0.253 µM | > 21.7 µM | 0.115 µM | 0.994 µM | 0.3 µM | 13.8 µM | 0.0355 µM | 0.354 µM | 0.258 µM | > 100 µM | 0.0866 µM | 0.815 µM | 0.047 µM | > 100 µM |
| COc1c(B(O)O)cccc1-c1nc2ccc3[nH]ncc3c2c2c1CCCC2 | 2.55 µM | > 34.9 µM | 2.48 µM | 9.28 µM | 1.43 µM | 11.2 µM | 2.25 µM | 15.2 µM | 3.42 µM | 10.2 µM | 2.68 µM | 28.1 µM | 0.0307 µM | 0.382 µM | 1.17 µM | 12.1 µM | 0.0448 µM | 16.4 µM | 0.262 µM | 14.3 µM |
| Cn1cc(C2=C(c3cc[nH]c3)C(=O)NC2=O)c2ccccc21 | > 25 µM | > 25 µM | > 25 µM | > 25 µM | > 25 µM | > 25 µM | > 25 µM | > 25 µM | > 25 µM | > 25 µM | > 25 µM | > 25 µM | 1.96 µM | > 25 µM | > 25 µM | > 25 µM | > 25 µM | > 25 µM | > 18.5 µM | > 25 µM |
